Results as given in paper PMC3130094 (Pharmacological research : the official journal of the …, 2011).
“And” between values parts separate entries of the source, which are not always exact repeats. Identical values can stand only once. “Also recorded” adds a separate entry of the source. Like-named read-outs stand apart in the source and are kept apart here. Non-standard residues stand in square brackets, D forms with d. Residues, ends and D or L forms follow the SMILES beside them. No end group written: not given here.

Legend:
[1] = test system: ND7/104 cells; assay: Ratiometric Fura-2 calcium imaging, ND7/104 cells; type: cell-based, rat/mouse hybrid; conditions: for Effect on ET-1 (30 nM) calcium transient: MDL-12,330A 50 µM, five minutes before ET-1, ND7/104 cells
[2] = test system: HEK 293T cells; assay: Ratiometric Fura-2 calcium imaging, HEK 293T cells; type: cell-based, human; conditions: for Effect on ET-1 (30 nM) calcium transient: MDL-12,330A 50 µM, five minutes before ET-1, HEK 293T cells
[3] = test system: HEK 293 cells; assay: Ratiometric Fura-2 calcium imaging, HEK 293 cells; type: cell-based, human
[4] = test system: ND7/104 cells; assay: Intracellular cAMP enzyme immunoassay, ND7/104 cells; type: cell-based, rat/mouse hybrid; conditions: ET-1 0.3 nM to 300 nM, 10 min 37 °C
[5] = test system: HEK 293T cells; assay: Intracellular cAMP enzyme immunoassay, HEK 293T cells; type: cell-based, human; conditions: ET-1 0.3 nM to 300 nM, 10 min 37 °C
[6] = target: cloned tagged-ETA receptors; conditions: HEK 293 membranes ref [33]; cited from earlier work
[7] = target: cloned tagged-ETB receptors; conditions: HEK 293 membranes ref [33]; cited from earlier work
[8] = target: ET receptors in pituitary tissue sections; conditions: pituitary tissue sections ref [32]; cited from earlier work
[9] = test system: ET receptors on intact ND7/104 cells; assay: [125I]-ET-1 saturation binding to intact ND7/104 cells; set-up: species or system rat/mouse hybrid; conditions: read-out: KD (I-ET-1), 4 °C
[10] = test system: ET receptors (ETA/ETB) on intact ND7/104 cells; assay: Competition binding against 30 pM [125I]-ET-1, intact ND7/104 cells; set-up: species or system rat/mouse hybrid; conditions: 100 nM BQ-123, ND7/104 cells
[11] = target: T1, ET receptors (ETA/ETB) on intact HEK 293T cells (Homo sapiens, UniProt P25101); conditions: read-out: High affinity KI BQ-123; HEK 293T cells, high affinity site (assumed ETA)
T1 sequence (P25101 21-427): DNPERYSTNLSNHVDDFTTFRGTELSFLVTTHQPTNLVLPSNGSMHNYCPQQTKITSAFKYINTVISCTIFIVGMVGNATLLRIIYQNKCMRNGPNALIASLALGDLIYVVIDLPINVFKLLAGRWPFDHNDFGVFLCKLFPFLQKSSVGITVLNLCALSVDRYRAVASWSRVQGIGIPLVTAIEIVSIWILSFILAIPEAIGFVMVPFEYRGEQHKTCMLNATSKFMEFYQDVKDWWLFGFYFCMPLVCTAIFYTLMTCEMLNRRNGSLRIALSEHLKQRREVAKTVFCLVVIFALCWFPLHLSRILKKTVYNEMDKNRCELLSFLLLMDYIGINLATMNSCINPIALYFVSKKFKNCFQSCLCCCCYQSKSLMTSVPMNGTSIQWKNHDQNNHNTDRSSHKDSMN

[12] = test system: ET receptors (ETA/ETB) on intact HEK 293T cells
[13] = test system: ET receptors (ETA/ETB) on intact HEK 293 cells; conditions: for Ki: HEK 293 cells

Compound: COc1ccc2c(c1)CC[C@@H]1[C@@H]2CC[C@]2(C)[C@@H](NCCCCCCN3C(=O)C=CC3=O)CC[C@@H]12 [U73122]
- Effect on ET-1 (30 nM) induced calcium transient ([1]; U73122 10 µM, 30 min pretreatment, normalized to ionomycin, ND7/104 cells): complete inhibition
- Effect on calcium response to ATP ([1]; U73122 10 µM, ND7/104 cells): abrogated
- Effect on response elicited by bradykinin ([1]; U73122, ND7/104 cells, data not shown): does not inhibit
- Effect on ET-1 (30 nM) induced calcium transient ([2]; U73122 10 µM, 30 min pretreatment, normalized to ionomycin, HEK 293T cells): complete inhibition
- Effect on calcium response to ATP ([2]; U73122 10 µM, HEK 293T cells): abrogated

Compound: CCCC[C@@H](NC(=O)[C@@H](Cc1cn(C(=O)OC)c2ccccc12)NC(=O)[C@H](CC(C)(C)C)NC(=O)N1[C@H](C)CCC[C@@H]1C)C(=O)O [BQ-788]
- Effect on ET-1 (30 nM) stimulated calcium increase ([1]; BQ-788 100 nM (Figure 6B: 100 and 200 nM), ND7/104 cells): without effect; also recorded: not affected
- Effect on ET-1 (30 nM) stimulated calcium increase ([2]; BQ-788 100 nM (Figure 6B: 100 and 200 nM), HEK 293T cells): without effect; also recorded: not affected

Compound: Nc1ncnc2c1ncn2[C@@H]1O[C@H](COP(=O)(O)OP(=O)(O)OP(=O)(O)O)[C@@H](O)[C@H]1O [ATP]
- Calcium response to ATP ([1]; ATP 40 µM, ND7/104 cells): induced a strong and comparable calcium response
- Calcium response to ATP ([2]; ATP 40 µM, HEK 293T cells): induced a strong and comparable calcium response
- Calcium response to ATP ([3]; ATP 40 µM): induced a strong and comparable calcium response

Compound: Cc1cc(C)cc(C(=O)N(C)[C@H](Cc2ccc(-c3ccccc3)cc2)C(=O)N[C@@H](Cc2c[nH]c3ccccc23)C(=O)O)c1 [IRL-2500]
- Effect on ET-1 (30 nM) stimulated calcium increase ([1]; IRL-2500 50 nM, ND7/104 cells): without effect; also recorded: not affected
- Effect on ET-1 (30 nM) stimulated calcium increase ([2]; IRL-2500 50 nM, HEK 293T cells): without effect; also recorded: not affected

Compound: Endothelin-1 (CSCSSLMDKECVYFCHLDIIW; ends and bridges not checked; cysteine pairing not given here; UniProt P05305 53-73, looked up) [ET-1]
- Share of cells showing [Ca2+]in mobilization ([1]; ET-1 30 nM and 100 nM, ND7/104 cells): ~ 35%
- [Ca2+]in response to ET-1 (normalized to ATP 40 µM) ([1]; ET-1 30 or 100 nM, ND7/104 cells): caused an increase in [Ca]in
- [Ca2+]in response to ET-1 in the absence of extracellular calcium ([1]; calcium-free Ringer, ND7/104 cells): not diminished; also recorded: did not affect the response
- Intracellular cAMP accumulation [4]: did not record a rise of intracellular cAMP; also recorded: None of the ET-1 concentrations tested produced a significant effect
- Share of cells showing [Ca2+]in mobilization ([2]; ET-1 30 nM and 100 nM, HEK 293T cells): ~ 35%
- [Ca2+]in response to ET-1 (normalized to ATP 40 µM) ([2]; ET-1 30 or 100 nM, HEK 293T cells): caused an increase in [Ca]in
- [Ca2+]in response to ET-1 in the absence of extracellular calcium ([2]; calcium-free Ringer, HEK 293T cells): not diminished; also recorded: did not affect the response
- [Ca2+]in response to ET-1 (normalized to ATP 40 µM) ([3]; ET-1 30 or 100 nM): neither of these concentrations of ET-1 produced a detectable increase of [Ca^2+]in; also recorded: does not promote intracellular calcium mobilization; also recorded: this effect was not observed
- Intracellular cAMP accumulation [5]: did not record a rise of intracellular cAMP; also recorded: None of the ET-1 concentrations tested produced a significant effect

Compound: Cl.c1ccc(C2CCCC2NC2=NCCCCCCCCCCC2)cc1 (stereo not drawn) [MDL-12,330A]
- Effect on calcium response to ATP ([1]; MDL 12,330A 50 µM preincubation, ND7/104 cells): markedly diminished response to ATP
- Effect on ET-1 (30 nM) calcium transient [1]: same outcome
- Effect on ET-1 (30 nM) calcium transient ([1]; listed as MDL 12,330A): did not affect negatively
- Basal [Ca2+]in on application of antagonist/inhibitor alone ([1]; ND7/104 cells, MDL 12,330A 50 µM, data not shown): did not produce a significant effect; also recorded: did not elicit a significant rise of [Ca^2+]in
- Basal [Ca2+]in on application of antagonist/inhibitor alone ([2]; HEK 293T cells, MDL 12,330A 50 µM, data not shown): did not produce a significant effect; also recorded: did not elicit a significant rise of [Ca^2+]in
- Effect on ET-1 (30 nM) calcium transient [2]: same outcome
- Effect on ET-1 (30 nM) calcium transient ([2]; listed as MDL 12,330A): did not affect negatively

Compound: [^125I]-ET-1: radio-iodinated endothelin-1 used as radioligand
- Kd [6]: ~0.03 nM
- Kd [7]: ~0.01 nM
- Kd [8]: 0.071 nM
- Kd [9]: 0.07 ± 0.01 nM

Compound: CC(C)C[C@@H]1NC(=O)[C@@H](C(C)C)NC(=O)[C@@H]2CCCN2C(=O)[C@@H](CC(=O)O)NC(=O)[C@@H](Cc2c[nH]c3ccccc23)NC1=O [BQ-123] (cyclo(L[dW][dD]P[dV]); ring closure inferred)
- ETA binding defined by BQ-123, share of specific [125I]-ET-1 binding [10]: 75.2 ± 22.2% and 75 ± 22%
- Ki [11]: 5.47 ± 1.52 nM
- ETA binding defined by BQ-123, share of specific [125I]-ET-1 binding ([12]; 100 nM BQ-123, HEK 293T cells): 75 ± 9%
- Low affinity Ki BQ-123 ([12]; HEK 293T cells, low affinity site): too high to allow its estimation
- Ki ([12]; read-out: KI (BQ-123), HEK 293T cells, 30 pM [125I]-ET-1): 0.21 ± 0.01 nM
- Effect on ET-1 (30 nM) stimulated calcium increase ([1]; BQ-123 50 nM, ND7/104 cells): blocked; also recorded: completely prevented
- Effect on ET-1 (30 nM) stimulated calcium increase ([2]; BQ-123 50 nM, HEK 293T cells): blocked; also recorded: completely prevented
- ETA binding defined by BQ-123, share of specific [125I]-ET-1 binding ([13]; 100 nM BQ-123, HEK 293 cells): 85.3 ± 19% and 85 ± 19%
- Ki ([13]; read-out: KI (BQ-123), 30 pM [125I]-ET-1): 0.39 ± 0.14 nM
- Ki ([13]; read-out: Low affinity KI BQ-123, low affinity site): 195 ± 136 nM
